Measurements as given in US8785486B2, “Imidazo[1,2-A]pyridine derivatives and their use as positive allosteric modulators of mGluR2 receptors” (Janssen Pharmaceuticals, Inc., priority 2007, dated 2014).

What was measured:
human mGluR2 receptor = molecular target: T1, human mGluR2 receptor (Homo sapiens, UniProt Q14416); experiment: [35S]GTPγS binding assay (PAM assay) using membranes from cells transfected with the human mGluR2 receptor; type: biochemical; details: membranes of CHO cells with human mGluR2, glutamate at predetermined EC25 concentration, averages of duplicate values of 11-concentration response curves; for EC50: read-out: GTPγS - hR2 PAM pEC50 (converted)
T1 construct: expressed in transfected cells; host or cells: CHO cells
T1 sequence (Q14416 19-872): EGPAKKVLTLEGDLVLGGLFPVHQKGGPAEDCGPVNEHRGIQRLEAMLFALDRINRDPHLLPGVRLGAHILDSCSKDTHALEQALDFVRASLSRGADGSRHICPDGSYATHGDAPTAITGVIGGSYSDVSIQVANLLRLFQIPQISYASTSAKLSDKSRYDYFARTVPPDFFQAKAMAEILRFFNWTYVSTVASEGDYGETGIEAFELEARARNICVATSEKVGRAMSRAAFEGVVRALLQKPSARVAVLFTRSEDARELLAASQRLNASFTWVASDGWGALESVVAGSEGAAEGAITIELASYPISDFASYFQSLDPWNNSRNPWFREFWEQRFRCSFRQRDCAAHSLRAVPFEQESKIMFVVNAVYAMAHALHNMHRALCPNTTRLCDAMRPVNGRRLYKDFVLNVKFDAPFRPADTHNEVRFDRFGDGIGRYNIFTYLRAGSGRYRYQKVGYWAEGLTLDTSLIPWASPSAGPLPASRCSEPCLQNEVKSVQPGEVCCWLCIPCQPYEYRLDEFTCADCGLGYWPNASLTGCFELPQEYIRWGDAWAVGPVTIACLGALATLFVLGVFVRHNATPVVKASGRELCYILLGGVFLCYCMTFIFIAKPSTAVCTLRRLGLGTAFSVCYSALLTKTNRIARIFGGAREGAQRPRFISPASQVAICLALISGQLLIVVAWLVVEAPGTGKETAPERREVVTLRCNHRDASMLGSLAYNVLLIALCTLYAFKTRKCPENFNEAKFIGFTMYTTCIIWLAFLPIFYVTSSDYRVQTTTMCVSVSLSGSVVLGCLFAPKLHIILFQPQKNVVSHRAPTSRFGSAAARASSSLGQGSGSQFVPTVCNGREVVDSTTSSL
Method: The [^35S]GTPγS binding assay is a functional membrane-based assay used to study G-protein coupled receptor (GPCR) function whereby incorporation of a non-hydrolysable form of GTP, [^35S]GTPγS (guanosine 5′-triphosphate, labelled with […] ^35S), is measured.
CHO-cells were cultured to pre-confluence and stimulated with 5 mM butyrate for 24 hours, prior to washing in PBS, and then collection by scraping in homogenisation buffer (50 mM Tris-HCl buffer, pH 7.4, 4° C.). Cell lysates were homogenized briefly (15 s) using an ultra-turrax homogenizer. The homogenate was centrifuged at 23 500×g for 10 minutes and the supernatant discarded. The pellet was resuspended in 5 mM Tris-HCl, pH 7.4 and centrifuged again (30 000×g, 20 min, 4° C.). The final pellet was resuspended in 50 mM HEPES, pH 7.4 and stored at −80° C. in appropriate aliquots before use. Protein concentration was determined by the Bradford method (Bio-Rad, USA) with bovine serum albumin as standard.
Measurement of mGluR2 positive allosteric modulatory activity of test compounds in membranes containing human mGluR2 was performed using frozen membranes that were thawed and briefly homogenised prior to pre-incubation in 96-well microplates (15 μg/assay well, 30 minutes, 30° C.) in assay buffer (50 mM HEPES pH 7.4, 100 mM NaCl, 3 mM MgCl2, 50 μM GDP, 10 μg/ml saponin,) with increasing concentrations of positive allosteric modulator (from 0.3 nM to 50 μM) and either a minimal pre-determined concentration of glutamate (PAM assay), or no added glutamate. […] After addition of [^35S]GTPγS (0.1 nM, f.c.) to achieve a total reaction volume of 200 μl, microplates were shaken briefly and further incubated to allow [^35S]GTPγS incorporation on activation (30 minutes, 30° C.). The reaction was stopped by rapid vacuum filtration over glass-fibre filter plates (Unifilter 96-well GF/B filter plates, Perkin-Elmer, Downers Grove, USA) microplate using a 96-well plate cell harvester (Filtermate, Perkin-Elmer, USA), and then by washing three times with 300 μl of ice-cold wash buffer (Na2PO4.2H2O 10 mM, NaH2PO4.H2O 10 mM, pH=7.4). Filters were then air-dried, and 40 μl of liquid scintillation cocktail (Microscint-O) was added to each well, and membrane-bound [^35S]GTPγS was measured in a 96-well scintillation plate reader (Top-Count, Perkin-Elmer, USA). Non-specific [^35S]GTPγS binding is determined in the presence of cold 10 μM GTP. Each curve was performed at least once using duplicate sample per data point and at 11 concentrations.
The concentration-response curves of representative compounds of the present invention in the presence of added EC25 of mGluR2 agonist glutamate to determine positive allosteric modulation (PAM), were generated using the Prism GraphPad software (Graph Pad Inc, San Diego, USA). The curves were fitted to a four-parameter logistic equation (Y=Bottom+(Top-Bottom)/(1+10^((Log EC50−X)*Hill Slope) allowing determination of EC50 values. The EC50 is the concentration of a compound that causes a half-maximal potentiation of the glutamate response. This is calculated by subtracting the maximal responses of glutamate in presence of a fully saturating concentration of a positive allosteric modulator from the response of glutamate in absence of a positive allosteric modulator. The concentration producing the half-maximal effect is then calculated as EC50

melting point [°C] | GTPγS - hR2 PAM pEC50 (human mGluR2 receptor) | EC50 (human mGluR2 receptor) [nM] | Compound
145 |  | 1290 | N#Cc1c(CN2CCC(F)(c3ccccc3)CC2)ccn2c(CC(F)(F)F)cnc12 [Example 40]
161.1 |  | 437 | Fc1ccccc1C1CCN(Cc2ccn3c(CC(F)(F)F)cnc3c2Cl)CC1 [Example 41]
196 |  |  | COc1cccc(C2(O)CCN(Cc3ccn4c(CC(F)(F)F)cnc4c3C#N)CC2)c1 [Example 43]
152 |  | 324 | N#Cc1c(CN2CCC(c3ccccc3F)CC2)ccn2c(CC(F)(F)F)cnc12 [Example 44]
150.2 |  | 1740 | Fc1ccccc1N1CCN(Cc2ccn3c(CC(F)(F)F)cnc3c2Cl)CC1 [Example 46]
267 |  | 229 | N#Cc1c(N2CCC(c3ccccc3)CC2)ccn2c(-c3ccc(F)cc3F)cnc12 [Example 47]
145.4 |  | 93.3 | N#Cc1c(N2CCC(c3ccccc3)CC2)ccn2c(CCC3CC3)cnc12 [Example 48]
220.7 |  | 195 | FC(F)(F)Cc1cnc2c(Cl)c(N3CCC(F)(c4ccccc4)CC3)ccn12 [Example 50, 8-Chloro-7-(4-fluoro-4-phenyl-piperidin-1-yl)-3-(2,2,2-trifluoro-ethyl)-imidazo[1,2-a]pyridine]
263.1 |  | 158 | FC(F)(F)Cc1cnc2c(Cl)c(N3CCC(c4ccccc4)CC3)ccn12 [Example 51, 8-Chloro-7-(4-phenyl-piperidin-1-yl)-3-(2,2,2-trifluoro-ethyl)-imidazo[1,2-a]pyridine]
155.4 |  | 240 | CC(C)(O)c1ccc(C2CCN(c3ccn4c(CC(F)(F)F)cnc4c3C#N)CC2)cc1 [Example 54]
212.9 |  | 97.7 | N#Cc1c(N2CCC3(CC2)OCc2ccccc23)ccn2c(CC(F)(F)F)cnc12 [Example 58]
289.8 |  | 166 | N#Cc1c(N2CCC(O)(c3ccccc3F)CC2)ccn2c(CC(F)(F)F)cnc12 [Example 62]
189.3 |  | 389 | CC(C)(O)c1ccc(C2CCN(c3ccn4c(CC(F)(F)F)cnc4c3Cl)CC2)cc1 [Example 63]
213.9 |  | 1550 | Cc1c(N2CCC(c3ccccc3)CC2)ccn2c(CC(F)(F)F)cnc12 [Example 64]
234.7 |  | 178 | CC(C)(O)c1ccccc1C1CCN(c2ccn3c(CC(F)(F)F)cnc3c2Cl)CC1 [Example 65, 2-(2-{1-[8-Chloro-3-(2,2,2-trifluoro-ethyl)-imidazo[1,2-a]pyridin-7-yl]-piperidin-4-yl}-phenyl)-propan-2-ol]
174.4 |  | 282 | FC(F)(F)Cc1cnc2c(Cl)c(N3CCC4(CC3)OCc3ccccc34)ccn12 [Example 66]
227.5 |  | 145 | CC(C)(O)c1ccccc1C1CCN(c2ccn3c(CC(F)(F)F)cnc3c2C#N)CC1 [Example 67, 7-{4-[2-(1-Hydroxy-1-methyl-ethyl)-phenyl]-piperidin-1-yl}-3-(2,2,2-trifluoro-ethyl)-imidazo[1,2-a]pyridine-8-carbonitrile]
164.2 |  |  | FC(F)(F)Cc1cnc2c(Cl)c(CN3CCC4(CC3)OCc3ccccc34)ccn12 [Example 123]

Continued, compound first:

Compound | melting point [°C] | GTPγS - hR2 PAM pEC50 (human mGluR2 receptor) | EC50 (human mGluR2 receptor) [nM]
N#Cc1c(N2CCN(c3ncccn3)CC2)ccn2c(CC(F)(F)F)cnc12 [Example 2, 7-(4-Pyrimidin-2-yl-piperazin-1-yl)-3-(2,2,2-trifluoro-ethyl)-imidazo[1,2-a]pyridine-8-carbonitrile] | 239 | 6.07 | 
CCCc1cnc2c(C#N)c(N3CCC(c4cccc(C(F)(F)F)c4)CC3)ccn12 [Example 5] | 126.8 to 131 |  | 107
CCCc1cnc2c(C#N)c(N3CCC(c4ccccc4)CC3)ccn12 [Example 6] | 161 | 6.81 | 
CCCc1cnc2c(C#N)c(N3CCC(O)(c4ccccc4)CC3)ccn12 [Example 8] | 201.1 |  | 316
CCCc1cnc2c(C#N)c(-c3ccc(Oc4cccnc4C)cc3)ccn12 [Example 9] | 159 |  | 316
CCCc1cnc2c(C#N)c(-c3ccc(Oc4ccnc(C)c4)cc3)ccn12 [Example 11] | 181.8 |  | 427
CCc1cnc2c(C#N)c(N3CCC(c4ccccc4)CC3)ccn12 [Example 12] | 150 | 6.30 | 
CCCc1cnc2c(C#N)c(N3CCN(c4nc(C)cc(C)n4)CC3)ccn12 [Example 14] | 194.4 | 6.19 | 
CCCc1cnc2c(C#N)c(N3CCN(c4ccccc4)CC3)ccn12 [Example 15] | 148.2 | 6.01 | 
CCc1cnc2c(C#N)c(N3CCC(O)(c4ccccc4)CC3)ccn12 [Example 16] | 265 |  | 1000
CCc1cnc2c(C#N)c(N3CCN(c4nc(C)cc(C)n4)CC3)ccn12 [Example 19] | 231.4 | 5.64 | 
N#Cc1c(N2CCN(c3ccccc3)CC2)ccn2c(-c3ccccc3)cnc12 [Example 20] | 220 |  | 
CCCc1cnc2c(C#N)c(N3CCN(c4ncccn4)CC3)ccn12 [Example 22] | 176.4 |  | 
CCc1cnc2c(C#N)c(-c3ccc(Oc4ccnc(C)c4)c(F)c3)ccn12 [Example 25] | 197.6 |  | 
N#Cc1c(N2CCC(c3ccccc3)CC2)ccn2c(CCCC(F)(F)F)cnc12 [Example 28, 7-(4-Phenyl-piperidin-1-yl)-3-(4,4,4-trifluoro-butyl)-imidazo[1,2-a]pyridine-8-carbonitrile] | 128.5 |  | 132
N#Cc1c(N2CCC(O)(c3ccccc3)CC2)ccn2c(CC(F)(F)F)cnc12 [Example 30] | 272.1 |  | 417
N#Cc1c(N2CCC(c3ccccc3F)CC2)ccn2c(CC(F)(F)F)cnc12 [Example 31] | 139.3 |  | 81.3
N#Cc1c(N2CCC(c3cccc(C(F)(F)F)c3)CC2)ccn2c(CC(F)(F)F)cnc12 [Example 32] | > 300 |  | 81.3
N#Cc1c(N2CCC(c3ccc(F)cc3F)CC2)ccn2c(CC(F)(F)F)cnc12 [Example 33] | 186.5 |  | 61.7
Cc1cc(C)nc(N2CCN(c3ccn4c(CC(F)(F)F)cnc4c3C#N)CC2)n1 [Example 34] | > 300 | 6.35 | 
FC(F)(F)Cc1cnc2c(Cl)c(CN3CCC(F)(c4ccccc4)CC3)ccn12 [Example 35] | 154.8 |  | 603
FC(F)(F)Cc1cnc2c(Cl)c(CN3CCN(c4ncccn4)CC3)ccn12 [Example 36, 8-Chloro-7-(4-pyrimidin-2-yl-piperazin-1-ylmethyl)-3-(2,2,2-trifluoro-ethyl)imidazo[1,2-a]pyridine] | 161.4 |  | 
Fc1ccc(N2CCN(Cc3ccn4c(CC(F)(F)F)cnc4c3Cl)CC2)c(F)c1 [Example 37] | 156.9 |  | 3020
N#Cc1c(CN2CCC(O)(c3ccc(F)cc3)CC2)ccn2c(CC(F)(F)F)cnc12 [Example 38] | 181.2 |  | 
